Assay results published in patent US8299111B2, “Compounds which modulate the CB2 receptor” (Boehringer Ingelheim International GmbH, priority 2006, dated 2012).

Each compound was assayed against T1, human CB2R (Homo sapiens, UniProt P34972) (assay: CB2R mediated modulation of cAMP synthesis). Conditions: found through the use of the above described assays (binding and cAMP); CHO cells expressing human CB2R, forskolin-stimulated cAMP.
T1 construct: host or cells: CHO cells
T1 sequence (P34972 whole entry): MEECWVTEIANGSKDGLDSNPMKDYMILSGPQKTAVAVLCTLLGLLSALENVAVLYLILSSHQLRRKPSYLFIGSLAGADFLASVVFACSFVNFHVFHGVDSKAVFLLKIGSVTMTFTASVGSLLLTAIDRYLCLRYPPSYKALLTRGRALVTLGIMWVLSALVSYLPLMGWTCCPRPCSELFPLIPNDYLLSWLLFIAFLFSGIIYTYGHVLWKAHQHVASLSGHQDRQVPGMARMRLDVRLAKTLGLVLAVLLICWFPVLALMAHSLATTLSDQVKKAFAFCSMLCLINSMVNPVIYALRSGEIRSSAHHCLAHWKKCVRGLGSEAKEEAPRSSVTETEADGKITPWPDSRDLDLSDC
Format: cell-based
Outline: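 CHO cells expressing human CB2R were treated for 30 min at 37 °C with compound in buffer containing 1 mM IBMX, 0.25% BSA and 10 uM forskolin. cAMP was measured after lysis. EC50 is the concentration giving 50% inhibition of forskolin-stimulated cAMP, scaled to the level set by 1 uM CP55940, fitted by four-parameter logistic.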
`CC(C)(C(=O)Nc1cnc2ccccc2c1)S(=O)(=O)c1ccc(S(C)(=O)=O)cc1` [2-(4-Methanesulfonyl-benzenesulfonyl)-2-methyl-N-quinolin-3-yl-propionamide] was tested, and the agonistic activity was “agonistic activity”.
With `CC(C)(C(=O)Nc1nc(-c2ccc(Cl)cc2)cs1)S(=O)(=O)c1ccc(Cl)cc1` [2-(4-Chloro-benzenesulfonyl)-N-[4-(4-chloro-phenyl)-thiazol-2-yl]-2-methyl-propionamide] the agonistic activity was “agonistic activity”.
`COc1ccc(S(=O)(=O)C(C)(C)C(=O)Nc2cc(C(C)(C)C)on2)cn1` [N-(5-tert-Butyl-isoxazol-3-yl)-2-(6-methoxy-pyridine-3-sulfonyl)-2-methyl-propionamide] was tested, and the agonistic activity was “agonistic activity”.
With `CCCc1cc(NC(=O)C(C)(C)S(=O)(=O)c2ccc(S(C)(=O)=O)cc2)on1` [2-methyl-2-{[4-(methylsulfonyl)phenyl]sulfonyl}-N-(3-propylisoxazol-5-yl)propanamide] the agonistic activity was “agonistic activity”.
With `CCOC(=O)c1sc(NC(=O)C(C)(C)S(=O)(=O)c2ccc(Cl)cc2)nc1C(F)(F)F` [ethyl 2-({2-[(4-chlorophenyl)sulfonyl]-2-methylpropanoyl}amino)-4-(trifluoromethyl)-1,3-thiazole-5-carboxylate] the agonistic activity was “agonistic activity”.
`CCCc1cc(NC(=O)C(C)(C)S(=O)(=O)c2ccc(Cl)cc2F)on1` [2-[(4-chloro-2-fluorophenyl)sulfonyl]-2-methyl-N-(3-propylisoxazol-5-yl)propanamide] was tested, and the agonistic activity was “agonistic activity”.
In the case of `O=C(Nc1ccc(C(F)(F)F)cn1)C1(S(=O)(=O)c2ccc(C(F)(F)F)cc2)CCOCC1` [4-(4-Trifluoromethyl-benzenesulfonyl)-tetrahydro-pyran-4-carboxylic acid (5-trifluoromethyl-pyridin-2-yl)-amide], the agonistic activity is reported as “agonistic activity”.
For `CC(C)(C(=O)Nc1ncc(C#N)s1)S(=O)(=O)c1ccc(Cl)cc1` [2-(4-Chloro-benzenesulfonyl)-N-(5-cyano-thiazol-2-yl)-2-methyl-propionamide], the agonistic activity was “agonistic activity”.
`CC(C)(C(=O)Nc1cccc(C(F)(F)F)n1)S(=O)(=O)c1ccc(Cl)cc1F` [2-(4-Chloro-2-fluoro-benzenesulfonyl)-2-methyl-N-(6-trifluoromethyl-pyridin-2-yl)-propionamide] was tested, and the agonistic activity was “agonistic activity”.
With `COc1ccc(S(=O)(=O)C(C)(C)C(=O)Nc2cc(C(C)(C)C)no2)cc1` [N-(3-tert-Butyl-isoxazol-5-yl)-2-(4-methoxy-benzenesulfonyl)-2-methyl-propionamide] the agonistic activity was “agonistic activity”.
In the case of `CCC(C)c1cc(NC(=O)C(C)(C)S(=O)(=O)c2ccc(Cl)cc2)on1` (centres unmarked) [N-(3-sec-Butyl-isoxazol-5-yl)-2-(4-chloro-benzenesulfonyl)-2-methyl-propionamide], the agonistic activity is reported as “agonistic activity”.
For `Cc1ccnc(NC(=O)C(C)(C)S(=O)(=O)c2ccc(Cl)cc2)n1` [2-[(4-chlorophenyl)sulfonyl]-2-methyl-N-(4-methylpyrimidin-2-yl)propanamide], the agonistic activity was “agonistic activity”.
`Cn1nc(C(C)(C)C)cc1NC(=O)C(C)(C)S(=O)(=O)c1ccc(C(F)(F)F)nc1` [N-(5-tert-Butyl-2-methyl-2H-pyrazol-3-yl)-2-methyl-2-(6-trifluoromethyl-pyridine-3-sulfonyl)-propionamide] was tested, and the agonistic activity was “agonistic activity”.
`COc1ccc(S(=O)(=O)C(C)(C)C(=O)Nc2cc(C(C)(C)C)on2)cc1` [N-(5-tert-Butyl-isoxazol-3-yl)-2-(4-methoxy-benzenesulfonyl)-2-methyl-propionamide] was tested, and the agonistic activity was “agonistic activity”.
In the case of `CCCc1cc(NC(=O)C(C)(C)S(=O)(=O)c2ccc(OC)cc2)on1` [2-[(4-methoxyphenyl)sulfonyl]-2-methyl-N-(3-propylisoxazol-5-yl)propanamide], the agonistic activity is reported as “agonistic activity”.
In the case of `CC(C)(C(=O)Nc1nc2ccccc2s1)S(=O)(=O)c1ccc(Cl)cc1` [N-Benzothiazol-2-yl-2-(4-chloro-benzenesulfonyl)-2-methyl-propionamide], the agonistic activity is reported as “agonistic activity”.
`Cn1nc(C(C)(C)C)cc1NC(=O)C(C)(C)S(=O)(=O)c1ccc(C#N)cc1F` [N-(5-tert-Butyl-2-methyl-2H-pyrazol-3-yl)-2-(4-cyano-2-fluoro-benzenesulfonyl)-2-methyl-propionamide] was tested, and the agonistic activity was “agonistic activity”.
In the case of `COc1ccc(S(=O)(=O)C(C)(C)C(=O)Nc2c(C)c(-c3ccccc3)nn2C)cc1` [N-(1,4-dimethyl-3-phenyl-1H-pyrazol-5-yl)-2-[(4-methoxyphenyl)sulfonyl]-2-methylpropanamide], the agonistic activity is reported as “agonistic activity”.
With `CC(C)(C)c1nc(NC(=O)C(C)(C)S(=O)(=O)c2ccc(Cl)cc2)sc1C#N` [N-(4-tert-butyl-5-cyano-1,3-thiazol-2-yl)-2-[(4-chlorophenyl)sulfonyl]-2-methylpropanamide] the agonistic activity was “agonistic activity”.
In the case of `CC(C)(C(=O)Nc1nc(-c2ccccc2)co1)S(=O)(=O)c1ccc(Cl)cc1` [2-(4-Chloro-benzenesulfonyl)-2-methyl-N-(4-phenyl-oxazol-2-yl)-propionamide], the agonistic activity is reported as “agonistic activity”.
With `CC(C)C(C(=O)Nc1cc(C(C)(C)C)nn1C)S(=O)(=O)c1ccc(C(F)(F)F)cc1` (centres unmarked) [N-(5-tert-Butyl-2-methyl-2H-pyrazol-3-yl)-3-methyl-2-(4-trifluoromethyl-benzenesulfonyl)-butyramide] the agonistic activity was “agonistic activity”.
`CCc1sc(NC(=O)C(C)(C)S(=O)(=O)c2ccc(S(C)(=O)=O)cc2)nc1-c1ccccc1` [N-(5-ethyl-4-phenyl-1,3-thiazol-2-yl)-2-methyl-2-{[4-(methylsulfonyl)phenyl]sulfonyl}propanamide] was tested, and the agonistic activity was “agonistic activity”.
In the case of `Cc1ccc(S(=O)(=O)C(C)(C)C(=O)Nc2cc(C(C)(C)C)no2)cc1F` [N-(3-tert-Butyl-isoxazol-5-yl)-2-(3-fluoro-4-methyl-benzenesulfonyl)-2-methyl-propionamide], the agonistic activity is reported as “agonistic activity”.
`CC(C)(C(=O)Nc1ccc2ccccc2n1)S(=O)(=O)c1ccc(Cl)cc1F` [2-[(4-chloro-2-fluorophenyl)sulfonyl]-2-methyl-N-quinolin-2-ylpropanamide] was tested, and the agonistic activity was “agonistic activity”.
For `Cc1ccc(NC(=O)C(C)(C)S(=O)(=O)c2ccc(Cl)cc2F)nc1` [2-[(4-chloro-2-fluorophenyl)sulfonyl]-2-methyl-N-(5-methylpyridin-2-yl)propanamide], the agonistic activity was “agonistic activity”.
With `CC(C)(C(=O)Nc1nc(C2CCCCC2)cs1)S(=O)(=O)c1ccc(Cl)cc1` [2-(4-Chloro-benzenesulfonyl)-N-(4-cyclohexyl-thiazol-2-yl)-2-methyl-propionamide] the agonistic activity was “agonistic activity”.
With `Cc1nc(NC(=O)C2(S(=O)(=O)c3ccc(C(F)(F)F)cc3)CCOCC2)sc1C(C)(C)C` [4-(4-Trifluoromethyl-benzenesulfonyl)-tetrahydro-pyran-4-carboxylic acid (5-tert-butyl-4-methyl-thiazol-2-yl)-amide] the agonistic activity was “agonistic activity”.
For `CC(C)(C)c1nnc(NC(=O)C(C)(C)S(=O)(=O)c2ccc(F)cc2F)s1` [N-(5-tert-butyl-1,3,4-thiadiazol-2-yl)-2-[(2,4-difluorophenyl)sulfonyl]-2-methylpropanamide], the agonistic activity was “agonistic activity”.
`CC(C)(C(=O)Nc1ccccc1Cl)S(=O)(=O)c1ccc(C(F)(F)F)cc1` [N-(2-Chloro-phenyl)-2-methyl-2-(4-trifluoromethyl-benzenesulfonyl)-propionamide] was tested, and the agonistic activity was “agonistic activity”.
For `Cn1nc(C2CC2)cc1NC(=O)C(C)(C)S(=O)(=O)c1ccc(Cl)cc1` [2-(4-Chloro-benzenesulfonyl)-N-(5-cyclopropyl-2-methyl-2H-pyrazol-3-yl)-2-methyl-propionamide], the agonistic activity was “agonistic activity”.
With `CC(C)(C)c1csc(NC(=O)C(C)(C)S(=O)(=O)c2cccnc2)n1` [N-(4-tert-Butyl-thiazol-2-yl)-2-methyl-2-(pyridine-3-sulfonyl)-propionamide] the agonistic activity was “agonistic activity”.
With `CC(C)(C(=O)Nc1ncc(C2CCOCC2)s1)S(=O)(=O)c1ccc(Cl)cc1` [2-(4-Chloro-benzenesulfonyl)-2-methyl-N-[5-(tetrahydro-pyran-4-yl)-thiazol-2-yl]-propionamide] the agonistic activity was “agonistic activity”.
`CC(C)(C)c1cc(NC(=O)C(C)(C)S(=O)(=O)c2ccccn2)no1` [N-(5-tert-Butyl-isoxazol-3-yl)-2-methyl-2-(pyridine-2-sulfonyl)-propionamide] was tested, and the agonistic activity was “agonistic activity”.
In the case of `CC(C)(C(=O)Nc1cccc(C(F)(F)F)c1)S(=O)(=O)c1ccc(C(F)(F)F)nc1` [2-methyl-N-[3-(trifluoromethyl)phenyl]-2-{[6-(trifluoromethyl)pyridin-3-yl]sulfonyl}propanamide], the agonistic activity is reported as “agonistic activity”.
With `Cn1nc(C(C)(C)C)cc1NC(=O)C(C)(C)S(=O)(=O)c1ccc(C#N)cc1` [N-(5-tert-Butyl-2-methyl-2H-pyrazol-3-yl)-2-(4-cyano-benzenesulfonyl)-2-methyl-propionamide] the agonistic activity was “agonistic activity”.
For `CC(C)(C)c1cc(NC(=O)C(C)(C)S(=O)(=O)c2ccc(F)cc2)no1` [N-(5-tert-Butyl-isoxazol-3-yl)-2-(4-fluoro-benzenesulfonyl)-2-methyl-propionamide], the agonistic activity was “agonistic activity”.
`CC(C)(C)c1cc(NC(=O)C(C)(C)S(=O)(=O)c2cc(F)ccc2F)on1` [N-(3-tert-Butyl-isoxazol-5-yl)-2-(2,5-difluoro-benzenesulfonyl)-2-methyl-propionamide] was tested, and the agonistic activity was “agonistic activity”.
With `CC(C)(C)c1cc(NC(=O)C(C)(C)S(=O)(=O)c2cccc(C#N)c2)no1` [N-(5-tert-Butyl-isoxazol-3-yl)-2-(3-cyano-benzenesulfonyl)-2-methyl-propionamide] the agonistic activity was “agonistic activity”.
